Values quoted from earlier work, collected in US6387861B1, “Detergent compositions” (Unilever Home & Personal Care USA division of Conopco, Inc., priority 1999, dated 2002).
Read-outs that look alike come from different tables or passages of the source.

Details: 20° C.

Row | SMILES | Water Solubility (other common materials) | Water Solubility (grams of solid to form a saturated solution in 100 grams of water, highly water-soluble materials)
1 | O=P(O)(O)OP(=O)(O)OP(=O)(O)O [Sodium tripolyphosphate anhydrous] | 15 g/100 g | –
2 | O=BO[O-].[Na+] [Sodium perborate anhydrous] | 3.7 g/100 g | –
3 | NC(N)=O [Urea] | – | >100 g/100 g
